Measured values as given in PMC12691742, “Anti-Cancer Outcome of Glucocorticoid Receptor Transrepression by Synephrine Derivatives in Hematological Malignancies” (International Journal of Molecular Sciences, 2025).
pIC50: −log10 of the molar value. Entries after “also recorded” stand apart in the source; their conditions may differ.

Columns and labels:
GR = molecular target: T1, GR (Homo sapiens, UniProt P04150); assay: GR radioligand binding assay, competition with [3H]Dex in K562 cells
T1 construct: endogenous in cells; host or cells: K562
T1 sequence (P04150 1-777): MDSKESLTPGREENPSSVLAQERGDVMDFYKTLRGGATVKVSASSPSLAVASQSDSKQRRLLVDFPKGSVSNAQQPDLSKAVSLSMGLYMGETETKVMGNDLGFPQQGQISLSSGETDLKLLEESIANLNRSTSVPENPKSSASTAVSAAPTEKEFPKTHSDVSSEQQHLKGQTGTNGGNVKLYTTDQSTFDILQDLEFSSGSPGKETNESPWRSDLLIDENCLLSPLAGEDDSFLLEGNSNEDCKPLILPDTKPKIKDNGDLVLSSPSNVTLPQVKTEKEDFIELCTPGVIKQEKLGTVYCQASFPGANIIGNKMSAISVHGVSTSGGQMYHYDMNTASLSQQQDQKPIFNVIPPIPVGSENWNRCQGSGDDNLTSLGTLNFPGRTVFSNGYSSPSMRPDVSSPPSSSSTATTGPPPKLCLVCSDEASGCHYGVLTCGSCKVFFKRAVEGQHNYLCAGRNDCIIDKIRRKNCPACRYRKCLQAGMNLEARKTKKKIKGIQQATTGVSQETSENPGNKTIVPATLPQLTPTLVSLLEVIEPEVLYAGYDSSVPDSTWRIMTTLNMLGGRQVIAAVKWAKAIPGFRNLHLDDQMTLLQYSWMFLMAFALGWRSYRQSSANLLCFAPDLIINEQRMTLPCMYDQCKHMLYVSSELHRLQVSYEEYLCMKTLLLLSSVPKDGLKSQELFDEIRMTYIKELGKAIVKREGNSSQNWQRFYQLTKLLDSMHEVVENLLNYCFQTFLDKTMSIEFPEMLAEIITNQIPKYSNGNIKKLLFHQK
Method: (A,B). […] The stability of the complex was simulated using molecular dynamics in the GROMACS program. (C) GR binding affinity was estimated using a radioligand binding assay. […] Cell lysate radioactivity was measured using a RackBeta 1215 LC (LKB Wallac, Turku, Finland) spectrometer for 4 min. […] The experiments were performed in triplicate (n = 3).
After 90 min of incubation, the cells were washed twice by centrifugation in cold serum-free medium (1500 rpm, 5 min). The cells were then lysed with RIPA buffer (50 mM Tris (pH 8.0), 150 mM NaCl, 1 mM ethylenediaminetetraacetic acid, 0.1% sodium dodecyl sulfate, 0.5% sodium deoxycholate, 1% triton-X100, 10% glycerin, and protease inhibitor) for 20 min. Lysates were transferred to scintillation liquid, and radioactivity was measured using a RackBeta 1215 LC spectrometer for 4 min. […] IC50 was determined using GraphPad Prism software, Ver.7.0. […] “Top” meant the highest value in dpm and was equal to 100%, while the “bottom” was considered as the lowest value (0%). […] The IC50 values for each ligand were determined by plotting these curves. The experiments were performed in triplicate.

[1] = tested on: DDIT4 expression in Granta cells; assay: Q-PCR of DDIT4 in Granta cells; assay type: cell-based; conditions: 24 h, 8S-E3 25 µM
Description: (§1) Q-PCR results were confirmed by Western blot analysis of the level of GR phosphorylated by Ser211, known as a crucial protein modification for GR TA realization because of its binding to short cysteine-rich fragments of the coactivator CREB-binding protein [41].
(§2) Figure 3 Effects of synephrine derivatives on GR transactivation in Granta lymphoma and K562 leukemia cells. (A) Q-PCR analysis of FKBP51, GILZ, and DDIT4 mRNA expression in K562 and Granta cells. […] The Q-PCR results were normalized to the expression of the housekeeping gene RPL27 and are presented as fold changes compared to the control. The mean ± SD was calculated for three individual samples/condition (n = 3). Statistically significant differences compared to the control: * p < 0.05, ** p < 0.01. (B) The levels of the nuclear fraction of phospho-GR (Ser211) were determined using Western blot analysis (n = 3; characteristic images are presented in the figure). Histone H3 was used as a loading control.
(§3) Total RNA isolation from cell cultures and murine bones, reverse transcription, and Q-PCR were performed as described in [36]. Primers were designed using NCBI Primer-BLAST https://www.ncbi.nlm.nih.gov/tools/primer-blast/, accessed on 25 August 2025 (Supplementary Table S1). Results were normalized to the expression of the housekeeping RPL27 и Rpl27 genes. The experiments were performed in triplicate.

[2] = tested on: leukemia and lymphoma cells (Granta, K562); design: method as in PMID 39858397; conditions: leukemia and lymphoma cells; read-out: cell viability IC50; cited from earlier work
[3] = tested on: GR phosphorylated by Ser211 in K562 and Granta cells; assay: Western blot of nuclear phospho-GR (Ser211); assay type: cell-based; conditions: 10 h; Dex 10 µM, 4S-C2 50 µM, 8S-E3 50 µM, 10S-E2 15 µM, 13S-G2 25 µM
Method: as §2
Western blot analysis was performed as previously described. Proteins were resolved using SDS-PAGE. Membranes were blocked with 5% nonfat milk solution and then incubated with primary antibodies against phosphorylated GR (pGR, Ser211) (“Santa Cruz Biotechnology”, Santa Cruz, CA, USA) overnight at 4 °C. To verify equal protein loading and adequate transfer, the membranes were probed with Histone H3 antibodies (“Cell Signaling”, Boston, MA, USA). Goat anti-rabbit IgGs (“Jackson Immuno Research”, West Grove, PA, USA) were used as secondary antibodies. Signals were detected using ECL reagent and an ImageQuant LAS4000 system (“GE HealthCare”, Chicago, IL, USA). ImageJ 1.54h software was used for densitometry. The experiments were performed in triplicate.
7 K562, pGR nuclear 5 Granta, pGR nuclear
Supplementary Figure S 22. Quantification of Western blot analysis. K562 and Granta cells […]
μM) and 13S-G2 (25 μ M) for 10 h. Quantification of Western blot anal ysis of p- GR protein levels was done usin g Im a ge J f ree so ftwar e. Statisticall y significant diff eren ces as compared to control: […]

[4] = tested on: DDIT4 expression in K562 cells; assay: Q-PCR of DDIT4 in K562 cells; assay type: cell-based; conditions: 24 h, 8S-E3 25 µM
Description: as §1, §2, §3

P388 murine lymphoma = assay: Transplantable P388 murine lymphoma model; assay type: in vivo, mice; conditions: Dex 1 mg/kg
Method: (§4) Figure 5 Pro-apoptotic and anti-cancer effects of synephrine derivatives in vitro and in vivo. (A) Effect of 4S-C2, 8S-E3, 10S-E2, and 13S-G2 on cell cycle progression in K562 and Granta cells after 24 h of incubation. The cells were fixed with ethanol, stained with propidium iodide, and analyzed using flow cytometry. Statistically significant difference compared to control: *—p < 0.05, **—p < 0.01 (n = 3). (B) In vivo anti-cancer activity was evaluated using the transplantable P388 murine lymphoma model. […] Tumor nodule size was measured twice a week using digital calipers. Statistically significant differences compared to the control: * p < 0.05, ** p < 0.01.
The protocol for the experiment was approved by the local N.N. Blokhin National Medical Research Center Ethics Committee and corresponded to the guidelines for the welfare and use of animals in cancer research adopted by The United Kingdom Coordinating Committee on Cancer Prevention Research. P388 cells were injected i.p. into 5-week-old female DBA/2 mice (“Stolbovaya Farm”, Stolbovaya, Russia). After 15 days, the cells were collected from the peritoneum, washed, and resuspended in PBS. For the experiments, 0.1 mL containing 2 million cells obtained from the ascites was inoculated s.c. in 5-week-old female BDF1 mice (“Stolbovaya Farm”, Stolbovaya, Russia). […] Body weight was recorded twice a week for toxicity determination. Tumor size was measured three times per week using digital calipers.

Granta cells = assay: Cell cycle analysis by PI flow cytometry in Granta cells; assay type: cell-based; conditions: 24 h, Dex 50 µM, 4S-C2 25 µM, 8S-E3 12.5 µM, 10S-E2 6.25 µM, 13S-G2 1 µM
Method: as §4
The distribution of cells by cell cycle phases was evaluated using propidium iodide (PI) staining, as described in [19]. […] After incubation, the cells were resuspended in 70% ethanol and fixed for 2h at 4 °C. Cells were then washed twice with cold PBS, pH 7.4, and stained with 500 µL of cold propidium iodide (PI) solution (50 µg/mL PI, 1% Triton X-100, and 100 µg/mL RNase A in PBS). The cell cycle distribution of cells in samples was analyzed using an FACSCalibur Flow Cytometer (“BD Biosciences”, San Jose, CA, USA). The experiments were performed in triplicate.

BALB/c female mice = assay: Glucocorticoid-induced osteoporosis model: bone and skin morphometry, body weight; assay type: in vivo; conditions: Dex 20 mg/kg
Description: (§5) (A) H&E bone staining and quantification of cortical bone thickness. (B) Q-PCR analysis of Rankl, Mmp9, Tsc2, Trap, and Bglap mRNA expression in bone tissue. […] (C) H&E skin staining and quantification of dermal adipose thickness (50 images per treatment group of 10 animals). Statistically significant differences compared to the control: * p < 0.05, ** p < 0.01.
(§6) The protocol for the experiment was approved by the local N.N. Blokhin National Medical Research Center Ethics Committee and corresponded to the guidelines for the welfare and use of animals in cancer research adopted by The United Kingdom Coordinating Committee on Cancer Prevention Research. […] Body weight was recorded twice a week for toxicity control.
Bone and skin samples from the GIOP experiment were fixed in formaldehyde and embedded in paraffin, and sections were stained with hematoxylin and eosin. After formaldehyde fixation, the bone samples were decalcified in decalcification buffer (0.5 M EDTA, 0.7 mM NaOH, pH7.0) for 14 days, washed twice with PBS, and further processed according to the standard histology protocol. The dermal adipose and bone thickness were quantified in sections stained with hematoxylin and eosin. At least five individual fields per slide of each sample/treatment (at least 50 images/treatment group) were analyzed using Axioplan2 microscope software (“Carl Zeiss”, Jena, Germany). The dermal adipose or bone thickness in treated animals is presented as a percentage of the control animals.

[5] = tested on: FKBP51, GILZ, DDIT4 mRNA expression in K562 and Granta cells; assay: Q-PCR of GR transactivation marker genes; assay type: cell-based; conditions: 4 h (FKBP51, GILZ) or 24 h (DDIT4); Dex 10 µM, 10S-E2 0.1 µM; vs control
Description: as §1, §2, §3

[6] = tested on: Rankl, Mmp9, Tsc2, Trap, Bglap mRNA expression in bone tissue; assay: Glucocorticoid-induced osteoporosis model: Q-PCR of marker genes in bone tissue; assay type: in vivo, mice; conditions: 5 weeks, Dex 20 mg/kg
Method: as §5
Total RNA isolation from cell cultures and murine bones, reverse transcription, and Q-PCR were performed as described in [36]. […] Results were normalized to the expression of the housekeeping RPL27 и Rpl27 genes. The experiments were performed in triplicate.
as §6

[7] = i.p. every 24 h for 5 weeks, 10S-E2 10 mg/kg

**Q.** With `OCCNCC(O)c1ccc(OCc2ccccc2)cc1` (stereo not drawn) [8S-E3, 1-(4-(benzyloxy)phenyl)-2-((2-hydroxyethyl)amino)ethanol] as the molecule, how does the pIC50 (GR) read?
**A.** Its pIC50 is 7.10.

**Q.** What about the “decrease in DDIT4 expression” value [1] of the same molecule?
**A.** The value was 1,5 fold.

**Q.** What about the pIC50 [2] of the same molecule?
**A.** The pIC50 was 3.92 to 4.10.

**Q.** What about the “GR phosphorylation level at Ser211” value [3] of the same molecule?
**A.** The value was “weak increase”.

**Q.** And the DDIT4 expression [4]?
**A.** Its DDIT4 expression is “strongly attenuated DDIT4 expression by more than three times”.

**Q.** Which results are given for `C[C@@H]1C[C@H]2[C@@H]3CCC4=CC(=O)C=C[C@]4(C)[C@@]3(F)[C@@H](O)C[C@]2(C)[C@@]1(O)C(=O)CO` [Dex, dexamethasone, reference compound]?
**A.** animal body weight change vs control (P388 murine lymphoma; P388 model, 10S-E2 10 mg/kg i.p. 3 times per week): no statisticall y si gnificant differences; inhibition of tumor growth (P388 murine lymphoma; s.c. P388 in BDF1 mice, i.p. 3 times per week, 10S-E2 10 mg/kg): 60–70%; level of apoptosis (sub-G1-phase cell population) (Granta cells): higher than that in the control samples; animal body weight vs control (BALB/c female mice; GIOP study, 10S-E2 10 mg/kg i.p. every 24 h for 5 weeks): no statisticall y si gnificant differences; also recorded: similar; loss of cortical bone thickness (BALB/c female mice; [7]): 30%; reduction of dermal adipose tissue / skin atrophy (BALB/c female mice; [7]): approximately 70%; expression of TA marker genes FKBP51, GILZ, DDIT4 [5]: 5-30 fold; Bglap mRNA expression in bone tissue [6]: Downregulation; Mmp9 mRNA expression in bone tissue ([6]; 10S-E2 10 mg/kg): tendency toward Mmp9 and Tsc2 upregulation; Rankl mRNA expression in bone tissue ([6]; 10S-E2 10 mg/kg): upregulation; Trap mRNA expression in bone tissue ([6]; 10S-E2 10 mg/kg): upregulation; Tsc2 mRNA expression in bone tissue ([6]; 10S-E2 10 mg/kg): tendency toward Mmp9 and Tsc2 upregulation; GR phosphorylation level at Ser211 [3]: weak increase
